We go through 18 molecules from patent publication US8163768B2, “1,4-dihydropyridine-fused heterocycles, process for preparing the same, use and compositions containing them” (Aventis Pharma S.A.., priority 2005, dated 2012).

In experiment [1] the target is T1, Aurora2 (Aurora-A) (Homo sapiens, UniProt O14965).
T1 construct: Aurora-A: the full length recombinant protein including an N-terminal poly-histidine tail has been expressed in E. coli; poly-histidine (N); made in house; host or cells: E. coli
T1 sequence (O14965 1-403): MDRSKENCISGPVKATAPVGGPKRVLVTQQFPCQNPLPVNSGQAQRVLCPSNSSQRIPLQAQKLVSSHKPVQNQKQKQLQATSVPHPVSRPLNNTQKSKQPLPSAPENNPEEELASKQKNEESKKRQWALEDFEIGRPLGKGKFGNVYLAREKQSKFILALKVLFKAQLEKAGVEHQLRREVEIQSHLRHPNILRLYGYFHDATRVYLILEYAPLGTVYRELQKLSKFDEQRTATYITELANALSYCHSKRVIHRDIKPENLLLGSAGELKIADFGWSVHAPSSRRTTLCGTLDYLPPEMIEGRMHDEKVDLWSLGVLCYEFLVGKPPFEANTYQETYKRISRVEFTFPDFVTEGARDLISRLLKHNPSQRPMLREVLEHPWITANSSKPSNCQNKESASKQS
The experiment is described as follows: Aurora 2 (Aurora A) kinase radioactivity scintillation assay using nickel chelate Flash plates. Format: biochemical. The conditions noted are these: 10 nM Aurora-A, 500 nM NuMA substrate, 1 μM ATP with [33P] ATP, 10 mM MgCl2, 30 minutes, 37° C. Here is the method: (§1) Aurora 1 and 2 (Respectively. Aurora B and A)
(§2) The inhibitory effect of compounds with respect to the Aurora 1 and 2 kinases is determined with a radioactivity scintillation assay using nickel chelate.
(§3) The kinase activity of Aurora is measured by the phosphorylation of NuMA-histidine substrate in the presence of radiolabelled ATP ([^33P] ATP) using 96 well Flash plates where the nickel-chelate is linked to the surface of the microplate. The amount of ^33P incorporated to the substrate NuMA is proportional to the aurora activity.
(§4) The Flash plates used are nickel-chelate 96 well plates (Perkin Elmer, model SMP107).
(§5) The products to be evaluated are incubated in a 100 μl reaction volume per well in the presence of 10 nM of Aurora-B or Aurora-A, 500 nM of NuMA substrate in the following buffer: 50 mM of NaCl, 5 mM MgCl2, (Aurora-B) or 10 mM MgCl2 (Aurora-A) and 1 mM of DTT at 37° C.
(§6) 80 μL of enzyme/substrate incubation buffer is distributed in each well, followed by 10 μL of solution of compound to be measured with various concentrations. The reaction is started by adding 1 μM of ATP (final concentration) containing 0.2 μCi of [^33P] ATP (10 μL). After 30 minutes of incubation the reaction is stopped by removal of the reaction mixture and each well is washed twice with 300 μl of buffer Tris/HCl. The radioactivity is measured in each well using a Packard Top count scintillation counter instrument.
(§7) The enzymatic activity is expressed as counts per minute obtained in 30 minutes after subtraction of the background noise (reaction medium without enzyme). The measurement is expressed as percentage of inhibition of Aurora activity versus the control. To generate IC50 values, compounds of the invention are tested at different concentration and the percentage of inhibition are plotted as function of compound concentration, IC50s are calculated using the Xlfit 4 curve fitting software.

Experiment [2] concerns the target T2, Aurora1 (Aurora-B) (Homo sapiens, UniProt Q96GD4).
T2 construct: Aurora-B: the full length protein (His tagged in N-terminal) has been co expressed in SF9 cells; poly-histidine (N); made in house; host or cells: SF9 cells
The experiment is described as follows: Aurora 1 (Aurora B) kinase radioactivity scintillation assay using nickel chelate Flash plates. Particulars: 10 nM Aurora-B (co expressed with C3 fragment of INCEP), 500 nM NuMA substrate, 1 μM ATP with [33P] ATP, 5 mM MgCl2, 30 minutes, 37° C. Format: biochemical. Here is the method:
as §1, §2, §3, §4, §5, §6, §7

T2 sequence (Q96GD4 whole entry, species assumed): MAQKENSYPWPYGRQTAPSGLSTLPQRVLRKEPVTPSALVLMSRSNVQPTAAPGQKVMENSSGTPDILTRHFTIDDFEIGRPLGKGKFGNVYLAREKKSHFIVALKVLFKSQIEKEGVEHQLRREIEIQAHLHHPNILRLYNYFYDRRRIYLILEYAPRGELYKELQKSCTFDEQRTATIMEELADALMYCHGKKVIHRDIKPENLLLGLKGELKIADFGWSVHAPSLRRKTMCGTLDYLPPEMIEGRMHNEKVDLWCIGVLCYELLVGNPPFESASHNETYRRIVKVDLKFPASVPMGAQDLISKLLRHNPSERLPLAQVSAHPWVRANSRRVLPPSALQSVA
T2 sequence (Q9NQS7 821-918 partner limits assumed, species assumed): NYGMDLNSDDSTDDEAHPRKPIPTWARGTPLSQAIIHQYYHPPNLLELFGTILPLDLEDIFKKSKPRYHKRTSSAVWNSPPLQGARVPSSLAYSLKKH

As for `O=C1CC(c2ccco2)CC2=C1C(c1ccc(Sc3nc4ccccc4[nH]3)o1)c1c[nH]nc1N2` (stereo not drawn) [Example 34, 4-[5-(1H-Benzimidazol-2-ylsulfanyl)-furan-2-yl]-7-furan-2-yl-2,4,6,7,8,9-hexahydro-pyrazolo[3,4-b]quinolin-5-one; compound with trifluoro-acetic acid], the figures for the IC50 in experiment [1] and in experiment [2] were 23 nM and 5 nM, respectively.

On to `O=C1CC(c2ccc3c(c2)OCO3)CC2=C1C(c1ccc(Sc3nc4ccccc4[nH]3)o1)c1c[nH]nc1N2` (stereo not drawn) [Example 35, 7-Benzo[1,3]dioxol-5-yl-4-[5-(1H-benzimidazol-2-ylsulfanyl)-furan-2-yl]-2,4,6,7,8,9-hexahydro-pyrazolo[3,4-b]quinolin-5-one; compound with trifluoro-acetic acid], for which the IC50 (in general, the concentration at which inhibition is half-maximal) in experiment [1] was 19 nM; in experiment [2], 5 nM.

Take `COc1ccc(C2CC(=O)C3=C(C2)Nc2n[nH]cc2C3c2ccc(Sc3nc4ccccc4[nH]3)o2)cc1OC` (stereo not drawn) [Example 36, 4-[5-(1H-Benzimidazol-2-ylsulfanyl)-furan-2-yl]-7-(3,4-dimethoxy-phenyl)-2,4,6,7,8,9-hexahydro-pyrazolo[3,4-b]quinolin-5-one; compound with trifluoro-acetic acid]: the IC50 came out at 41 nM in experiment [1] and 11 nM in experiment [2].

Consider `CCCCCC1CC(=O)C2=C(C1)Nc1n[nH]cc1C2c1ccc(Sc2nc3ccccc3[nH]2)o1` (stereo not drawn) [Example 37, 4-[5-(1H-Benzimidazol-2-ylsulfanyl)-furan-2-yl]-7-pentyl-2,4,6,7,8,9-hexahydro-pyrazolo[3,4-b]quinolin-5-one; compound with trifluoro-acetic acid], for which the results for the IC50 in experiment [1] and in experiment [2] were 29 nM and 7 nM, respectively.

`O=C1CC(c2ccccc2F)CC2=C1C(c1ccc(Sc3nc4ccccc4[nH]3)o1)c1c[nH]nc1N2` (stereo not drawn) [Example 38, 4-[5-(1H-Benzimidazol-2-ylsulfanyl)-furan-2-yl]-7-(2-fluoro-phenyl)-2,4,6,7,8,9-hexahydro-pyrazolo[3,4-b]quinolin-5-one; compound with trifluoro-acetic acid]: the half-inhibitory concentration (IC50) in experiment [1] stood at 18 nM; in experiment [2], 7 nM.

As to `COc1ccccc1C1CC(=O)C2=C(C1)Nc1n[nH]cc1C2c1ccc(Sc2nc3ccccc3[nH]2)o1` (stereo not drawn) [Example 39, 4-[5-(1H-Benzimidazol-2-ylsulfanyl)-furan-2-yl]-7-(2-methoxy-phenyl)-2,4,6,7,8,9-hexahydro-pyrazolo[3,4-b]quinolin-5-one; compound with trifluoro-acetic acid], the concentration for half-maximal inhibition (IC50) in experiment [1] stood at 134 nM; in experiment [2], 38 nM.

Regarding `O=C1CCCCC2=C1C(c1ccc(Sc3nc4ccccc4[nH]3)o1)c1c[nH]nc1N2` (stereo not drawn) [Example 41, 4-[5-(1H-Benzoimidazol-2-ylsulfanyl)-furan-2-yl]-4,6,7,8,9,10-hexahydro-2H-1,2,10-triaza-cyclohepta[f]inden-5-one; compound with trifluoro-acetic acid], the figures for the IC50 in experiment [1] and in experiment [2] were 29 nM and 10 nM, respectively.

Consider `O=C1OCC2=C1C(c1ccc(Sc3nc4ccccc4[nH]3)o1)c1c[nH]nc1N2` (stereo not drawn) [Example 42, 4-[5-(1H-Benzoimidazol-2-ylsulfanyl)-furan-2-yl]-2,4,7,8-tetrahydro-6-oxa-1,2,8-triaza-s-indacen-5-one; compound with trifluoro-acetic acid], for which the IC50 in experiment [1] was found to be 508 nM; in experiment [2], 17 nM.

Turning to `O=C1CN(CC(O)CN2CCCCC2)CC2=C1C(c1ccc(Sc3nc4ccccc4[nH]3)o1)c1c[nH]nc1N2` (stereo not drawn) [Example 45, 4-[5-(1H-Benzimidazol-2-ylsulfanyl)-furan-2-yl]-7-(2-hydroxy-3-piperidin-1-yl-propyl)-2,4,6,7,8,9-hexahydro-pyrazolo[3,4-b]-1,7-naphthyridin-5-one; compound with trifluoro-acetic acid], the 50% inhibitory concentration (IC50) in experiment [1] is 887 nM; in experiment [2], 43 nM.

On to `O=C1CNCC2=C1C(c1ccc(Sc3nc4ccccc4[nH]3)o1)c1c[nH]nc1N2CC(O)CN1CCOCC1` (stereo not drawn) [Example 52, 4-[5-(1H-Benzimidazol-2-ylsulfanyl)-furan-2-yl]-9-(2-hydroxy-3-morpholin-4-yl-propyl)-2,4,6,7,8,9-hexahydro-pyrazolo[3,4-b]-1,7-naphthyridin-5-one; compound with trifluoro-acetic acid], for which the figures for the half-maximal inhibitory concentration (IC50) in experiment [1] and in experiment [2] were 1940 nM and 145 nM, respectively.

With `CN1C2=C(C(=O)CCC2)C(c2ccc(Sc3nc4ccccc4[nH]3)o2)c2c[nH]nc21` (stereo not drawn) [Example 59, 4-[5-(1H-Benzimidazol-2-ylsulfanyl)-furan-2-yl]-9-methyl-2,4,6,7,8,9-hexahydro-pyrazolo[3,4-b]quinolin-5-one; compound with trifluoro-acetic acid], the values for the IC50 in experiment [1] and in experiment [2] were 2220 nM and 136 nM, respectively.

As to `Cc1ccc2[nH]c(Sc3ccc(C4C5=C(CCCC5=O)Nc5n[nH]cc54)o3)nc2c1` (stereo not drawn) [Example 70, 4-[5-(5-Methyl-1H-benzimidazol-2-ylsulfanyl)-furan-2-yl]-2,4,6,7,8,9-hexahydro-pyrazolo[3,4-b]quinolin-5-one; compound with trifluoro-acetic acid compound with trifluoro-acetic acid], the IC50 in experiment [1] is 31 nM; in experiment [2], 8 nM.

Regarding `Cc1ccc2[nH]c(Sc3ccc(C4C5=C(CNCC5=O)Nc5n[nH]cc54)o3)nc2c1` (stereo not drawn) [Example 71, 4-[5-(5-Methyl-1H-benzimidazol-2-ylsulfanyl)-furan-2-yl]-2,4,6,7,8,9-hexahydro-pyrazolo[3,4-b]-1,7-naphthyridin-5-one; compound with trifluoro-acetic acid], the concentration for half-maximal inhibition (IC50) in experiment [1] amounted to 187 nM; in experiment [2] it was 15 nM.

As for `Cc1ccc2[nH]c(Sc3ccc(C4C5=C(CC(C)(C)CC5=O)Nc5n[nH]cc54)o3)nc2c1` (stereo not drawn) [Example 72, 7,7-Dimethyl-4-[5-(5-methyl-1H-benzimidazol-2-ylsulfanyl)-furan-2-yl]-2,4,6,7,8,9-hexahydro-pyrazolo[3,4-b]quinolin-5-one], the 50% inhibitory concentration (IC50) was determined as 20 nM in experiment [1] and 6 nM in experiment [2].

As to `O=C1CCCC2=C1C(c1ccc(Sc3nc4cc(Cl)ccc4s3)o1)c1c[nH]nc1N2` (stereo not drawn) [Example 73, 4-[5-(5-Chloro-benzothiazol-2-ylsulfanyl)-furan-2-yl]-2,4,6,7,8,9-hexahydro-pyrazolo[3,4-b]quinolin-5-one; compound with trifluoro-acetic acid], the half-maximal inhibitory concentration (IC50) in experiment [1] is 35 nM; in experiment [2], 55 nM.

`O=C1CNCC2=C1C(c1ccc(Sc3nc4cc(Cl)ccc4s3)o1)c1c[nH]nc1N2` (stereo not drawn) [Example 74, 4-[5-(5-Chloro-benzothiazol-2-ylsulfanyl)-furan-2-yl]-2,4,6,7,8,9-hexahydro-pyrazolo[3,4-b]-1,7-naphthyridin-5-one; compound with trifluoro-acetic acid]: the 50% inhibitory concentration (IC50) was 302 nM in experiment [1] and 521 nM in experiment [2].

Regarding `CC1(C)CC(=O)C2=C(C1)Nc1n[nH]cc1C2c1ccc(Sc2nc3cc(Cl)ccc3s2)o1` (stereo not drawn) [Example 75, 4-[5-(5-Chloro-benzothiazol-2-ylsulfanyl)-furan-2-yl]-7,7-dimethyl-2,4,6,7,8,9-hexahydro-pyrazolo[3,4-b]quinolin-5-one], the figures for the 50% inhibitory concentration (IC50) in experiment [1] and in experiment [2] were 73 nM and 183 nM, respectively.

As to `O=C1CCCC2=C1C(c1ccc(Sc3nc4cc(OC(F)F)ccc4[nH]3)o1)c1c[nH]nc1N2` (stereo not drawn) [Example 76, 4-[5-(5-Difluoromethoxy-1H-benzimidazol-2-ylsulfanyl)-furan-2-yl]-2,4,6,7,8,9-hexahydro-pyrazolo[3,4-b]quinolin-5-one; compound with trifluoro-acetic acid], the 50% inhibitory concentration (IC50) in experiment [1] stood at 46 nM; in experiment [2], 9 nM.
